Data reported in US12077503B2, “Substituted cyclic amides and their use as herbicides” (FMC CORPORATION, priority 2015, dated 2024).

Tests used:
Type in all cases: in vivo
[1] = system: barnyardgrass (Echinochloa crus-galli); assay: Test B flooded paddy test; conditions: Flood, 250 g ai/ha; 0 to 100 scale where 0 is no effect and 100 is complete control; 13 to 15 d
In short: (§1)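 Compound goes directly into floodwater once pots are flooded 3 cm above soil, targeting plants at two leaves; the water depth is then held for the test duration. Plants sit 13–15 d in a greenhouse and are rated visually, 100 denoting complete control.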

[2] = system: ducksalad (Heteranthera limosa); assay: Test B flooded paddy test; conditions: Flood, 250 g ai/ha; 0 to 100 scale where 0 is no effect and 100 is complete control; 13 to 15 d
In short: as §1

[3] = system: sedge, umbrella (small-flower umbrella sedge, Cyperus difformis); assay: Test B flooded paddy test; conditions: Flood, 250 g ai/ha; 0 to 100 scale where 0 is no effect and 100 is complete control; 13 to 15 d
In short: as §1

rice (Oryra sativa) = assay: Test B flooded paddy test; conditions: Flood, 250 g ai/ha; 0 to 100 scale where 0 is no effect and 100 is complete control; 13 to 15 d
In short: as §1

[4] = system: barnyardgrass (Echinochloa crus-galli); assay: Test A postemergence
In short: (§2)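 Visual injury, scored on a 0–100 scale relative to untreated controls, was recorded about 10 d after application. Treatments were a preemergence soil spray over planted seeds or a postemergence spray on plants at the one- to two-leaf stage, 2 to 10 cm tall, all in loam soil–sand blend in the greenhouse.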

[5] = system: pigweed (Amaranthus retroflexus); assay: Test A postemergence
In short: as §2

[6] = system: ragweed (common ragweed, Ambrosia elatior); assay: Test A postemergence
In short: as §2

corn (Zea mays) = assay: Test A postemergence
In short: as §2

[7] = system: blackgrass (Alopecurus myosuroides); assay: Test A postemergence
In short: as §2

[8] = system: ryegrass, Italian (Italian ryegrass, Lolium multiflorum); assay: Test A postemergence
In short: as §2

Kochia (Kochia scoparia) [9] = assay: Test A postemergence
In short: as §2

[10] = system: giant foxtail (Setaria faberii); assay: Test A postemergence
In short: as §2

[11] = system: Galium (catchweed bedstraw, Galium aparine); assay: Test A postemergence
In short: as §2

[12] = system: wheat (Triticum aestivum); assay: Test A postemergence
In short: as §2

[13] = system: barnyardgrass (Echinochloa crus-galli); assay: Test A preemergence
In short: as §2

[14] = system: pigweed (Amaranthus retroflexus); assay: Test A preemergence
[15] = system: ragweed (common ragweed, Ambrosia elatior); assay: Test A preemergence
In short: as §2

[16] = system: ryegrass, Italian (Italian ryegrass, Lolium multiflorum); assay: Test A preemergence
In short: as §2

Kochia (Kochia scoparia) [17] = assay: Test A preemergence
In short: as §2

[18] = system: giant foxtail (Setaria faberii); assay: Test A preemergence
In short: as §2

[19] = 125 g ai/ha, postemergence, visual rating after approx. 10 d, 0 to 100 scale (0 no effect, 100 complete control)
[20] = Postemergence, 500 g ai/ha, 0 to 100 scale where 0 is no effect and 100 is complete control
[21] = 125 g ai/ha, Preemergence, visual injury after approximately 10 d, 0 to 100 scale where 0 is no effect and 100 is complete control
[22] = Preemergence, 500 g ai/ha, visual injury approx. 10 d
[23] = 500 g ai/ha, postemergence, visual injury, 0 to 100 scale (0 no effect, 100 complete control), approx. 10 d
[24] = 500 g ai/ha, preemergence, 0 to 100 scale, 0 = no effect, 100 = complete control

Row | SMILES | Plant response rating, Barnyardgrass [1] | Plant response rating, Ducksalad [2] | Plant response rating, Sedge, Umbrella [3] | Plant response rating, Rice (rice (Oryra sativa)) | Plant response rating, Barnyardgrass [4, 19] | Plant response rating, Pigweed [5, 19] | Plant response rating, Ragweed [6, 19] | Plant response rating, Corn (corn (Zea mays); [19]) | Plant response rating, Blackgrass [7, 19] | Plant response rating, Ryegrass, Italian [8, 19] | Plant response rating, Kochia (Kochia (Kochia scoparia) [9]; [19]) | Plant response rating, Foxtail, Giant [10, 19] | Plant response rating, Galium [11, 19] | Plant response rating, Wheat [12, 19] | Plant response rating, Barnyardgrass [13, 21] | Plant response rating, Pigweed [14, 21] | Plant response rating, Ragweed [15, 21] | Plant response rating, Ryegrass, Italian [16, 21] | Plant response rating, Kochia (Kochia (Kochia scoparia) [17]; [21]) | Plant response rating, Foxtail, Giant [18, 21] | other results
1 | CC(C)Oc1cccc(C2CNC(=O)C2C(=O)Nc2ccc(F)c(F)c2F)c1 (stereo not drawn) [Compound 554] | 55 | 100 | 0 | 25 | 80 | 0 | 0 | 40 | 60 | 40 | 20 | 70 | 60 | 20 | 90 | 0 | 20 | 20 | 70 | 90 | Plant response rating, Barnyardgrass [4, 20]: 90; Plant response rating, Pigweed [5, 20]: 0; Plant response rating, Ragweed [6, 20]: 30; Plant response rating, Corn (corn (Zea mays); [20]): 70; Plant response rating, Blackgrass [7, 20]: 70; Plant response rating, Ryegrass, Italian [8, 20]: 90; Plant response rating, Kochia (Kochia (Kochia scoparia) [9]; [20]): 50; Plant response rating, Foxtail, Giant [10, 20]: 80; Plant response rating, Galium [11, 20]: 60; Plant response rating, Wheat [12, 20]: 50; Barnyardgrass plant response rating (0 to 100 scale, 0 is no effect, 100 is complete control) [13, 22]: 90; Pigweed plant response rating (0 to 100 scale, 0 is no effect, 100 is complete control) [14, 22]: 30; Ragweed plant response rating (0 to 100 scale, 0 is no effect, 100 is complete control) [15, 22]: 70; Ryegrass, Italian plant response rating (0 to 100 scale, 0 is no effect, 100 is complete control) [16, 22]: 40; Kochia plant response rating (0 to 100 scale, 0 is no effect, 100 is complete control) (Kochia (Kochia scoparia) [17]; [22]): 90; Foxtail, Giant plant response rating (0 to 100 scale, 0 is no effect, 100 is complete control) [18, 22]: 90
2 | CCc1cc(C2CNC(=O)C2C(=O)Nc2cccc(F)c2F)cs1 (racemic) [Compound 658] | 50 | 100 | 0 | 0 | 70 | 0 | 0 | 0 | 40 | 30 | 0 | 0 | 60 | 0 | 90 | 0 | 50 | 0 | 0 | 90 | Plant response rating, Barnyardgrass [4, 23]: 90; Plant response rating, Pigweed [5, 23]: 0; Plant response rating, Ragweed [6, 23]: 40; Plant response rating, Corn (corn (Zea mays); [23]): 30; Plant response rating, Blackgrass [7, 23]: 70; Plant response rating, Ryegrass, Italian [8, 23]: 60; Plant response rating, Kochia (Kochia (Kochia scoparia) [9]; [23]): 30; Plant response rating, Foxtail, Giant [10, 23]: 60; Plant response rating, Galium [11, 23]: 60; Plant response rating, Wheat [12, 23]: 30; Plant response rating, Barnyardgrass [13, 24]: 90; Plant response rating, Pigweed [14, 24]: 50; Plant response rating, Ragweed [15, 24]: 70; Plant response rating, Ryegrass, Italian [16, 24]: 70; Plant response rating, Kochia (Kochia (Kochia scoparia) [17]; [24]): 30; Plant response rating, Foxtail, Giant [18, 24]: 90
